From ChEMBL document CHEMBL1156122, “Protein tyrosine phosphatase 1B inhibitors isolated from Morus bombycis” (Bioorg Med Chem Lett, 2009)

Target: T1, Tyrosine-protein phosphatase non-receptor type 1 (Homo sapiens, UniProt P18031)
T1 sequence (P18031 whole entry): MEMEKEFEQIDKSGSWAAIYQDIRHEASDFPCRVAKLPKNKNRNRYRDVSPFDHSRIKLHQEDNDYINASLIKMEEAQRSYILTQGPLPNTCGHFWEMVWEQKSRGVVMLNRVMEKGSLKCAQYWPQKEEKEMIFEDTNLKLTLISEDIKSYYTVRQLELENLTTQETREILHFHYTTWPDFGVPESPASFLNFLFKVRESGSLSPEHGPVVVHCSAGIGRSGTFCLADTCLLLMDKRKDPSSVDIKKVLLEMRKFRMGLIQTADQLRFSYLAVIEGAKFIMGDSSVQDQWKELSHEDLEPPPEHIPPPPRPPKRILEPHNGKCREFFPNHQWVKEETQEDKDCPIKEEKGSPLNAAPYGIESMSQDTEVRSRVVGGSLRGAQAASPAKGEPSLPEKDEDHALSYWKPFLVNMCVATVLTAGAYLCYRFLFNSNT
Assay: Inhibition of human recombinant PTP1B

| SMILES | IC50 |
| --- | --- |
| CC(C)=CCC/C(C)=C/Cc1c(O)cc(O)cc1-c1cc2ccc(O)cc2o1 [ALBAFURAN A] | 9.2 µM |
| CC(C)=CCc1c(O)cc(C(=O)[C@H]2[C@@H](c3c(O)ccc(C(=O)/C=C/c4ccc(O)cc4O)c3O)C=C(C)C[C@@H]2c2ccc(O)cc2O)cc1O [KUWANON J] | 2.7 µM |
| CC(C)=CCc1c(O)cc(C(=O)[C@H]2[C@@H](c3c(O)ccc(C(=O)/C=C/c4ccc(O)cc4)c3O)C=C(C)C[C@@H]2c2ccc(O)cc2O)cc1O [KUWANON R] | 8.2 µM |
| CC(C)=CCc1c(O)cc(C(=O)[C@H]2[C@@H](c3c(O)ccc(C(=O)/C=C/c4ccc(O)cc4)c3O)C=C(C)C[C@@H]2c2ccc(O)cc2)cc1O [KUWANON V] | 13.8 µM |
| CC(C)=CCC/C(C)=C/Cc1c(O)ccc2cc(-c3cc(O)cc(O)c3CC=C(C)C)oc12 [MULBERROFURAN D] | 4.3 µM |
| CC(C)=CCC/C(C)=C\CC/C(C)=C\Cc1c(O)cc(O)cc1-c1cc2ccc(O)cc2o1 [MULBERROFURAN W] | 2.7 µM |
